# Values of other authors in patent US20240398764A1, “METHODS OF TREATING DISEASES ASSOCIATED WITH SENESCENT CELL ACCUMULATION” (University of Florida Research Foundation, Incorporated, priority 2021, published 2024).
# Experiments:
# [1] = tested on: platelets; settings: literature statement; cited from earlier work
# [2] = tested on: platelets; settings: vs ABT263; cited from earlier work
# [3] = tested on: SnCs; settings: vs ABT263; cited from earlier work
Compound,Platelet apoptosis / thrombocytopenia [1],Toxicity to platelets compared with ABT263 [2],Potency against SnCs compared with ABT263 [3]
CC1(C)CCC(CN2CCN(c3ccc(C(=O)NS(=O)(=O)c4ccc(NCC5CCOCC5)c([N+](=O)[O-])c4)c(Oc4cnc5[nH]ccc5c4)c3)CC2)=C(c2ccc(Cl)cc2)C1 [ABT199],does not induce thrombocytopenia,,
CC1(C)CCC(c2ccc(Cl)cc2)=C(CN2CCN(c3ccc(C(=O)NS(=O)(=O)c4ccc(N[C@H](CCN5CCOCC5)CSc5ccccc5)c(S(=O)(=O)C(F)(F)F)c4)cc3)CC2)C1 [ABT263],induces platelet apoptosis and results in severe thrombocytopenia,,
CC1(C)CCC(c2ccc(Cl)cc2)=C(CN2CCN(c3ccc(C(=O)NS(=O)(=O)c4ccc(N[C@H](CCN5CCN(C(=O)CCCn6cc(COCCOCCNc7cccc8c7C(=O)N(C7CCC(=O)NC7=O)C8=O)nn6)CC5)CSc5ccccc5)c(S(=O)(=O)C(F)(F)F)c4)cc3)CC2)C1 (stereo partly shown) [PZ15227],,less toxic to platelets,equally or slightly more potent against SnCs
